From PubChem BioAssay (NCI)
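Cultured in 96-well plates, cells were exposed to test compound for 48 hours across five concentrations. At the TGI there is no net growth.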

Experiments:
Test in all cases: NCI-60 cell line screen, 48 h
[1] = tested on: KM12 colon
[2] = tested on: HT29 colon
[3] = tested on: A549 NSCLC
[4] = tested on: 786-0 renal
[5] = tested on: SK-OV-3 ovarian
[6] = tested on: SF-268 CNS
[7] = tested on: ACHN renal
[8] = tested on: IGROV1 ovarian
[9] = tested on: LOX IMVI melanoma
[10] = tested on: UO-31 renal
[11] = tested on: MDA-N
[12] = tested on: OVCAR-3 ovarian

| SMILES | TGI [1] | TGI [2] | TGI [3] | TGI [4] | TGI [5] | TGI [6] | TGI [7] | TGI [8] | TGI [9] | TGI [10] | TGI [11] | TGI [12] |
| --- | --- | --- | --- | --- | --- | --- | --- | --- | --- | --- | --- | --- |
| CC(=O)OCC1OC(n2c3c(c(-c4ccc(Cl)cc4)c(C#N)c2=S)CCCC3)C(OC(C)=O)C(OC(C)=O)C1OC(C)=O (stereo unspecified) | > 100 µM | > 100 µM | > 100 µM | > 100 µM | > 100 µM | > 100 µM | > 100 µM | > 100 µM | > 100 µM | > 100 µM | > 100 µM | > 100 µM |
| COc1ccccc1C(O)[C@@H]1C[C@@H]2[C@H]3CC[C@@](C)([C@@H]2O1)C3(C)C (stereo partly specified) | 41.6 µM | 39.1 µM | 43.4 µM | 32.7 µM | 87.1 µM | 58 µM | 35.4 µM | 31.2 µM | 35.8 µM | 32.4 µM | 32 µM | 31.3 µM |
| COc1ccc2c(c1)/C(=C\c1c(Cl)[nH]c3ccccc13)C(=O)N2 | 15.1 µM | 5.2 µM | 19 µM | 17 µM | 9.87 µM | 16 µM | 20.8 µM | 9.78 µM | 17.5 µM | 20.2 µM | 3.83 µM | 23 µM |
| CC(=O)OCC(=O)OC[C@H](OCc1ccccc1)[C@@H]1[C@H](OC(C)=O)C(=O)N1Cc1ccccc1 | > 100 µM | > 100 µM | > 100 µM | > 100 µM | > 100 µM | > 100 µM | > 100 µM | > 100 µM | > 100 µM | > 100 µM | > 100 µM | > 100 µM |
| CN(C)c1c(C2OC(CO)C(O)C2O)c(=O)c1=O (stereo unspecified) | > 100 µM | > 100 µM | > 100 µM | > 100 µM | > 100 µM | > 100 µM | > 100 µM | > 100 µM | > 100 µM | > 100 µM | > 100 µM | > 100 µM |
| Nc1ncnc2c1ncn2C1CCC(CP(=O)(O)O)C1 (stereo unspecified) | > 100 µM | > 100 µM | > 100 µM | > 100 µM | > 100 µM | > 100 µM | > 100 µM | > 100 µM | > 100 µM | > 100 µM | > 100 µM | > 100 µM |
| O=[S@]1c2ccc3ccccc3c2N[C@@H]2[C@H]1[C@H]1C=C[C@@H]2C1 | > 100 µM | > 100 µM | > 100 µM | > 100 µM | > 100 µM | > 100 µM | > 100 µM | > 100 µM | > 100 µM | > 100 µM | 60.8 µM | 37.6 µM |
| COC(=O)c1cc(NC(=O)Cc2c[nH]c3ccccc23)cn1C | > 100 µM | > 100 µM | > 100 µM | > 100 µM | > 100 µM | > 100 µM | > 100 µM | > 100 µM | > 100 µM | > 100 µM | > 100 µM | > 100 µM |
| O=C(c1ccccc1)N1CCC(CC2(c3cc4ccccc4[nH]3)OCCO2)CC1 | > 100 µM | 85.9 µM | > 100 µM | 34.7 µM | > 100 µM | > 100 µM | > 100 µM | > 100 µM | 35.6 µM | > 100 µM | 87.5 µM | > 100 µM |
| O=C1Nc2nccnc2C(=O)N2CCC[C@@H]12 | > 100 µM | > 100 µM | > 100 µM | > 100 µM | > 100 µM | > 100 µM | > 100 µM | > 100 µM | > 100 µM | > 100 µM | > 100 µM | > 100 µM |
| CC(C)C(OC(=O)c1ccc(NCC2=CC(=O)C=CC2=O)cc1)C(C)C | 30.5 µM | 26.3 µM | > 73.1 µM | 22.8 µM | 42.1 µM | 31.9 µM | 21.2 µM | 5.14 µM | 18 µM | 4.74 µM | 21.5 µM | 23.4 µM |
| O=C(/C=C/c1ccccc1)Nc1ccccc1SCCCCl | > 64.6 µM | > 41.4 µM | > 100 µM | > 100 µM | > 100 µM | > 100 µM | > 100 µM | > 51.5 µM | > 68.2 µM | 91.6 µM | 28.6 µM | > 92.1 µM |
| CC(C)CC(N)C(=O)Nc1ccc2ccccc2c1 (stereo unspecified) | > 100 µM | > 100 µM | > 100 µM | > 100 µM | > 100 µM | > 100 µM | > 100 µM | > 100 µM | > 100 µM | > 100 µM | > 100 µM | > 100 µM |
| CCOP(=O)(OCC)C(C(=O)OC)C(=O)C(=O)Nc1cccc(O)c1 (stereo unspecified) | > 100 µM | > 100 µM | > 100 µM | > 100 µM | > 100 µM | > 100 µM | > 100 µM | > 100 µM | > 100 µM | > 100 µM | > 100 µM | > 100 µM |
| CC(Nc1ccc(Cl)c(Cl)c1)c1ccncc1 (stereo unspecified) | 40.1 µM | 72.4 µM | > 100 µM | 60.5 µM | 29.3 µM | > 100 µM | > 100 µM | 50.7 µM | 40 µM | 31.1 µM | 66.6 µM | 84.3 µM |
| [B-][P+](CC[P+]1([B-])[C@@H](C)[C@@H](O)[C@H](O)[C@@H]1C)(c1ccccc1)c1ccccc1OC (stereo partly specified) | 33.1 µM | 40.6 µM | 28.8 µM | 60.8 µM | 37.6 µM | 32.8 µM | 31.6 µM | 31.3 µM | 8.51 µM | 21.7 µM | 29.6 µM | 31 µM |
| COc1ccccc1/C=C/C1=NN(c2cccc(S(=O)(=O)O)c2)C2(C1)C(Cl)C(=O)N2c1nc2ccccc2s1 (stereo unspecified) | > 100 µM | > 100 µM | > 100 µM | > 59.8 µM | > 100 µM | > 100 µM | > 100 µM | > 100 µM | > 67 µM | 33.5 µM | > 100 µM | > 100 µM |
| COc1ccc(OC)c2c1C=CC(Br)=CC2 | 0.85 µM | 0.284 µM | > 1 µM | 0.544 µM | 0.358 µM | > 1 µM | > 1 µM | > 1 µM | 0.302 µM | > 1 µM | 0.529 µM | > 1 µM |
